# Measurements published in patent US20200129630A1, “METHODS FOR TREATING CANCER” (BicycleRD Limited, priority 2018, published 2020).
# Where two headings read alike, the source gives them in different places. Numbered stars: 1 amine (or outer) side, 2 acyl side, 3 side chain; on linkers, the order of the positions; unused ones are H or OH. Bridge positions count the residues as written; N and C are the ends. Square brackets hold non-standard residues; d marks the D form. Peptide text beside a SMILES is read from it. 1Nal = N[C@@H](Cc1cccc2ccccc12)C(=O)O; TBMB = c1c(C[*:1])cc(C[*:3])cc1C[*:2]; Tle = CC(C)(C)[C@H](N)C(=O)O; βAla = NCCC(=O)O; Sar = CNCC(=O)O
# Legend:
# [1] = test system: NSCLC; settings: second-line treatment, PD-1 checkpoint blockade; cited from earlier work
# [2] = test system: HER2 positive breast cancer; settings: third-line, HER2 positive population; cited from earlier work
# [3] = test system: NMB selected tumors; settings: cited from earlier work
# [4] = [^3H]-DM1 200 μg/kg IV, rat; cited from earlier work
# [5] = monkey; previously reported; cited from earlier work
# [6] = human; previously reported; cited from earlier work
# [7] = rat; previously reported; cited from earlier work
# [8] = test system: MT1 MMP-expressing NSCLC PDX models; experiment: MT1-MMP-expressing NSCLC PDX models, docetaxel-sensitive and -resistant; assay type: in vivo; settings: 60 mg/m^2 once weekly
# From the text: Furthermore, BT1718 produced an anti-tumor effect against MT1 MMP-expressing NSCLC PDX models irrespective of their sensitivity to the SOC chemotherapeutic docetaxel. […] The PDX models confirm that MT1-MMP expression is necessary for BT1718 anti-tumor activity.
# [9] = Intrinsic clearance in cryopreserved hepatocytes; assay type: in vitro ADME
# Procedure: Accumulation of the majority of the radioactivity was found in the kidney and bladder irrespective of the labelled peptide dose; this is indicative of either non-saturable excretion or proteolysis followed by excretion through the kidneys. Furthermore, the intrinsic clearance of BT1718 and its Bicycle component, N241 was low when measured in cryopreserved hepatocytes. […] Unconjugated DM1, when radiolabelled, (as [[^3H]-DM1 (91 μCi/kg, 200 μg/kg, IV), was reported to distribute rapidly and extensively to the lungs, liver, kidney, spleen, heart, gastrointestinal tract, and adrenal glands in the rat. The major route of excretion of DM1 was through the bile/faeces, with a minimal amount excreted in the urine, a completely different distribution to BT1718 and its metabolites with little and short lived accumulation seen in other organs such as heart, liver, GI and lungs which would imply that these organs maybe spared systemic toxicity.
# [10] = in vitro immunogenicity tests, n=50
# From the text: These include in vitro tissue microarray in human, rat and monkey tissues and in vitro and in vivo assessment of immunogenicity. In vivo assessments include single dose toxicity in mice and rats, multiple dose range finding studies in mice, rats, dogs and monkeys (non-GLP) and GLP-compliant multiple dose studies in rats and monkeys consisting of 28-day on study phase with a 28-day recovery period.
# [11] = molecular target: MT1-MMP (Homo sapiens, UniProt P50281); experiment: Effect on catalytic (proteolytic) activity of MT1-MMP; assay type: biochemical; settings: in vitro
# Procedure: (§1) Bicycle drug conjugates (BDCs) with a variety of linkers and cytotoxic payloads were prepared which retained binding to MT1.
# (§2) BT1718 is a BDC that binds to MT1-MMP and upon cleavage of its disulphide linker, releases the cytotoxic tubulin inhibitor, DM1 (also referred to as DM1-SH).
# [12] = test system: catalytic domain of MT1-MMP; experiment: Binding to catalytic domain of MT1-MMP
# Procedure: as §1, §2
# [13] = test system: MMP15, MMP16, MMP24, MMP1, Pro-MMP1, MMP2; experiment: Binding to related MMP family members
# Procedure: as §1, §2
# [14] = test system: cell migration or invasion; experiment: Cell migration or invasion; assay type: cell-based
# Procedure: as §1
# [15] = test system: MMP1, MMP2 and MMP9; experiment: Effect on related MMP catalytic activity; assay type: biochemical
# Procedure: as §1
compound,measurement,setting,value
atezolizumab: PD-1 checkpoint blockade agent,ORR,[1],around 20%
T-DM1,ORR,[2],31%
CDX-011: Antibody-Drug Conjugate (ADC) against glycoprotein NMB,ORR,[3],30%
pembrolizumab: PD-1 checkpoint blockade agent,ORR,[1],around 20%
COc1cc2cc(c1Cl)N(C)C(=O)C[C@H](OC(=O)[C@H](C)N(C)C(=O)CCS)[C@]1(C)O[C@H]1[C@H](C)[C@@H]1C[C@@](O)(NC(=O)O1)[C@H](OC)/C=C/C=C(\C)C2 [DM1],major route of excretion,[4],bile/faeces
same,unbound fraction,[5],7%
same,unbound fraction,[6],7%
same,unbound fraction,[7],3%
CC(=O)O[C@@]12CO[C@@H]1C[C@H](O)[C@@]1(C)C(=O)[C@H](O)C3=C(C)[C@@H](OC(=O)[C@H](O)[C@@H](NC(=O)OC(C)(C)C)c4ccccc4)C[C@@](O)([C@@H](OC(=O)c4ccccc4)[C@H]21)C3(C)C [docetaxel],anti-tumor effect,[8],regression only in the docetaxel-sensitive model
C[C@H](NC(=O)CN(C)C(=O)CN(C)C(=O)CN(C)C(=O)CN(C)C(=O)CN(C)C(=O)CN(C)C(=O)CN(C)C(=O)CN(C)C(=O)CN(C)C(=O)CN(C)C(=O)CCN)C(=O)N[C@H]1CSCc2cc3cc(c2)CSC[C@H](NC(=O)[C@@H](C)NC(=O)[C@H](Cc2cccc4ccccc24)NC(=O)[C@H](CCC(=O)O)NC(=O)[C@H](CC(N)=O)NC(=O)[C@@H](C)NC1=O)C(=O)N[C@@H](CCC(=O)O)C(=O)N[C@@H](CC(=O)O)C(=O)N[C@@H](Cc1ccccc1)C(=O)N[C@@H](Cc1ccc(O)cc1)C(=O)N[C@@H](CC(=O)O)C(=O)N[C@@H](C(C)(C)C)C(=O)N[C@H](C(N)=O)CSC3 [N241] (H-[βAla][Sar][Sar][Sar][Sar][Sar][Sar][Sar][Sar][Sar][Sar]AC[dA]NE[1Nal][dA]CEDFYD[Tle]C-NH2; linker 13-19-26 via TBMB; N-terminus and C-terminus assumed),intrinsic clearance,[9],low
same,positive responses in donor cohort,[10],2%
same,impact on the catalytic activity of the protease,[11],no direct impact
same,binding to the catalytic domain,[12],no binding
same,selectivity over catalytic domain of MT1-MMP,[12],at least 50 fold
same,selectivity over other related-MMP hemopexin domains,[13],over 200 fold
same,binding toward closely related MMP family members,"[13]; MMP15, MMP16, MMP24, MMP1, Pro-MMP1, MMP2",no binding
same,impact on cell migration or invasion,[14],no direct impact
same,impact on related MMP catalytic activity,[15],no direct impact
nivolumab: PD-1 checkpoint blockade agent,ORR,[1],around 20%
